What was measured:
Format in all cases: cell-based
[1] = system: primary human fibroblasts derived from IPF patients (LL29 cells) treated with TGF-β1; assay: Inhibition of the fibrotic process: αSMA staining in TGF-β1-treated LL29 fibroblasts; conditions: Fibroblast, 96 h, LL29 fibroblasts treated with TGF-β1 (20 ng/mL), 4 days, Table 4
How it was run: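 EC50 from triplicate-well dose-response fits of % αSMA-positive cells, normalized to TGF-β1-stimulated DMSO controls, with SYTOX-positive dead cells excluded. LL29 IPF fibroblasts received compound at 10 μM–1.87 nM (0.1% DMSO) plus 20 ng/mL TGF-β1 for 4 days in 1% FBS medium; above 10 μM, % inhibition at 10 μM reported.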

SW480 colon cancer cells = assay: Cell viability assay (CellTiter-Blue) in SW480 cells; conditions: Homo sapiens, 96 h, four days; for inhibition at 10 µM: read-out: percent inhibition at 10 μM (given for EC50 of >10 μM); for EC50: CellTiter-Blue, 10 μM to 0.0045 μM
How it was run: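 Resazurin reduction (Ex 560/Em 590 nm, ~3 h reagent incubation) served as the viability read-out after SW480 cells were treated for four days at 37 °C. Doses ran from 10 μM down to 0.0045 μM in eight 1:3 steps. Curves fitted non-linearly for EC50, else % inhibition at 10 μM reported.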

IL-6 (THP-1 cells) = assay: IL-6 inhibition in LPS-stimulated THP-1 monocytes (HTRF); conditions: Homo sapiens, IL-6 HTRF; for EC50: 500 ng/mL LPS, Table 6; for inhibition at 10 µM: LPS, Table 6, read-out: percent inhibition at 10 μM (given in parentheses for EC50 >10 μM)
How it was run: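 THP-1 cells in 1% FBS pre-incubated 2 h with compound (10-point 1:3 series from 10 μM, 0.1% DMSO), then stimulated with 500 ng/mL LPS for 22 h at 37 °C. IL-6 measured by HTRF 665/620 ratio, normalized to DMSO; EC50 by four-parameter fit, or % inhibition at 10 μM when EC50 >10 μM.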

| SMILES | EC50 (SW480 colon cancer cells) [nM] | EC50 (IL-6 (THP-1 cells)) [nM] | EC50 [1] [nM] | inhibition at 10 µM (SW480 colon cancer cells) [%] | inhibition at 10 µM (IL-6 (THP-1 cells)) [%] |
| --- | --- | --- | --- | --- | --- |
| O=C(CC1CCNCC1)Nc1cncc(-c2ccc3[nH]nc(-c4nc5c(-c6ccsc6)cccc5[nH]4)c3n2)c1 [Compound 673, 2-(Piperidin-4-yl)-N-(5-(3-(4-(thiophen-3-yl)-1H-benzo[d]imidazol-2-yl)-1H-pyrazolo[4,3-b]pyridin-5-yl)pyridin-3-yl)acetamide] | > 10000 | > 10000 | 2780 | 4.3 | 24.8 |
| c1cc(-c2ccoc2)c2nc(-c3n[nH]c4ccc(-c5cncc(OCCN6CCCC6)c5)nc34)[nH]c2c1 [Compound 690, 3-(4-(Furan-3-yl)-1H-benzo[d]imidazol-2-yl)-5-(5-(2-(pyrrolidin-1-yl)ethoxy)pyridin-3-yl)-1H-pyrazolo[4,3-b]pyridine] | 3860 | 93.9 | 2440 | – | – |
| COc1cncc(-c2ccc3[nH]nc(-c4nc5c(-c6ccoc6)cccc5[nH]4)c3n2)c1 [Compound 692, 3-(4-(Furan-3-yl)-1H-benzo[d]imidazol-2-yl)-5-(5-methoxypyridin-3-yl)-1H-pyrazolo[4,3-b]pyridine] | 2100 | > 10000 | 1410 | – | 53.2 |
| Cn1cc(-c2ccc3[nH]nc(-c4nc5c(-c6cccs6)cccc5[nH]4)c3n2)cn1 [Compound 700, 5-(1-Methyl-1H-pyrazol-4-yl)-3-(4-(thiophen-2-yl)-1H-benzo[d]imidazol-2-yl)-1H-pyrazolo[4,3-b]pyridine] | > 10000 | > 10000 | 391 | 27.3 | 27.4 |
| Cc1ccc(-c2cccc3[nH]c(-c4n[nH]c5ccc(C6=CCNCC6)nc45)nc23)s1 [Compound 730, 3-(4-(5-Methylthiophen-2-yl)-1H-benzo[d]imidazol-2-yl)-5-(1,2,3,6-tetrahydropyridin-4-yl)-1H-pyrazolo[4,3-b]pyridine] | 642 | 9160 | 1340 | – | – |
| Cc1ccc(-c2cccc3[nH]c(-c4n[nH]c5ccc(-c6cncc(OC7CCCCC7)c6)nc45)nc23)s1 [Compound 735, 5-(5-(Cyclohexyloxy)pyridin-3-yl)-3-(4-(5-methylthiophen-2-yl)-1H-benzo [d]imidazol-2-yl)-1H-pyrazolo[4,3-b]pyridine] | > 10000 | > 10000 | 1130 | 32.3 | 38.8 |
| Cn1cc(-c2ccc3[nH]nc(-c4nc5c(-c6cc(F)cc(CNS(C)(=O)=O)c6)cccc5[nH]4)c3n2)cn1 [Compound 764, N-(3-Fluoro-5-(2-(5-(1-methyl-1H-pyrazol-4-yl)-1H-pyrazolo[4,3-b]pyridin-3-yl)-1H-benzo[d]imidazol-4-yl)benzyl)methanesulfonamide] | 1410 | 3150 | 1990 | – | – |

Second part, led by results:

| EC50 (SW480 colon cancer cells) [nM] | EC50 (IL-6 (THP-1 cells)) [nM] | SMILES | EC50 [1] [nM] | inhibition at 10 µM (SW480 colon cancer cells) [%] | inhibition at 10 µM (IL-6 (THP-1 cells)) [%] |
| --- | --- | --- | --- | --- | --- |
| 635 | 9370 | Cc1ncc(-c2ccc3[nH]nc(-c4nc5c(-c6ccoc6)cccc5[nH]4)c3n2)n1C [Compound 685, 5-(1,2-Dimethyl-1H-imidazol-5-yl)-3-(4-(furan-3-yl)-1H-benzo[d]imidazol-2-yl)-1H-pyrazolo[4,3-b]pyridine] | 5040 | – | – |
| 1540 | 5890 | CN(C)CCOc1cncc(-c2ccc3[nH]nc(-c4nc5c(-c6cccs6)cccc5[nH]4)c3n2)c1 [Compound 707, N,N-Dimethyl-2-((5-(3-(4-(thiophen-2-yl)-1H-benzo[d]imidazol-2-yl)-1H-pyrazolo[4,3-b]pyridin-5-yl)pyridin-3-yl)oxy)ethan-1-amine] | 1350 | – | – |
| > 10000 | > 10000 | CS(=O)(=O)NCc1cc(F)cc(-c2cccc3[nH]c(-c4n[nH]c5ccc(-c6cncc(NC(=O)CC7CCNCC7)c6)nc45)nc23)c1 [Compound 769, N-(5-(3-(4-(3-Fluoro-5-(methylsulfonamidomethyl)phenyl)-1H-benzo[d]imidazol-2-yl)-1H-pyrazolo[4,3-b]pyridin-5-yl)pyridin-3-yl)-2-(piperidin-4-yl)acetamide] | 3250 | 0 | 25.4 |

Source: patent publication US10392383B2, “3-(1H-benzo[d]imidazol-2-yl)-1H-pyrazolo[4,3-b]pyridines and therapeutic uses thereof” (Samumed, LLC, priority 2015, dated 2019)
